This is an account of results in PubChem BioAssay AID1996.

One may read the kinetic solubility as solubility judged after dilution from a stock solution rather than from solid.

Each structure is given as a SMILES string. ≈ marks a conversion by molar mass, not a printed value. Bounds are passed on as bounds.

The conditions of this data set: buffer; pH 7.4; 200.0 µM.
The molecule `Cc1cc(C)n2nc(C(=O)OCC(=O)N(CC(C)C)C3CCS(=O)(=O)C3)nc2n1` (stereo not drawn) came in with a solubility (kinetic) above 63.5 µg/mL.

On to `COc1ccccc1/C=C/C(=O)N1CCc2cc(OC)c(OC)cc2C1C` (stereo not drawn), for which the kinetic solubility was found to be 33 µg/mL (≈ 89.8 µM).

`CN(c1ccc(C(=O)NC2CCCC2)cc1)S(=O)(=O)c1ccccc1` displayed a solubility (kinetic) of 48.9 µg/mL (≈ 136 µM). This solubility kinetic and that of the molecule before are within 1.5-fold of each other.

Regarding `CC(OC(=O)c1cc(S(=O)(=O)N2CCOCC2)ccc1F)C(=O)NCC1CCCCC1` (stereo not drawn), the kinetic solubility was above 68.5 µg/mL.

As for `COc1cc(CN=C(C)c2c(O)n(C3CCCCC3)c(=O)[nH]c2=O)cc(OC)c1`, the solubility (kinetic) is below 0.3 µg/mL.

For the molecule `O=C(c1ccc(OC(F)(F)F)cc1)c1ncc[nH]1`, the solubility (kinetic) came out at 37.2 µg/mL (≈ 145 µM).

Regarding `S=C(NCc1cccnc1)Nc1ccc2c(c1)OCO2`, the kinetic solubility is above 43.1 µg/mL.

Turning to `Oc1ccc(NCc2ccc(OCc3ccccc3)cc2)cc1`, the kinetic solubility turned out to be 9.7 µg/mL (≈ 31.8 µM).

`CC(C)Oc1ccc(CNC(=S)Nc2ccccc2)cc1Cl`: the kinetic solubility came to 7.2 µg/mL (≈ 21.5 µM).

The molecule `COC(=O)c1c(C)oc(C)c1S(=O)(=O)N(C)C1CCCCC1` registered a kinetic solubility of 38.9 µg/mL (≈ 118 µM). This solubility kinetic lies about 5.4-fold higher than the previous one.

Consider `Clc1nn2cnnc2c2ccccc12`, for which the solubility (kinetic) is above 30.7 µg/mL.

The molecule `Cc1ccccc1Nc1ccc2nonc2c1[N+](=O)[O-]` displayed a kinetic solubility of 0.8 µg/mL (≈ 2.96 µM).

As to `Cc1cccc(NC(=O)Nc2ccc(OCc3ccccc3)cc2)n1`, the kinetic solubility was below 0.2 µg/mL.

Molecule `O=C(Nc1ccon1)c1ccc(Br)s1` returned a kinetic solubility of 5.5 µg/mL (≈ 20.1 µM).

In turn, `CC(=O)c1ccc(S(=O)(=O)NCC(=O)NC(c2nc3ccccc3[nH]2)C(C)C)cc1` (stereo not drawn) returned a kinetic solubility above 64.3 µg/mL.

For `COc1cc(OC)c(C(=O)O/N=C(\N)c2cccc(C)c2)cc1OC`, the solubility (kinetic) was above 51.7 µg/mL.

In turn, `N#C/C(=C\c1ccccc1C(=O)O)c1nc2ccccc2[nH]1` came in with a kinetic solubility above 43.4 µg/mL.

Consider `N/C(Cc1nc(-c2ccc(F)cc2)cs1)=N\O`, for which the kinetic solubility came out at 36.4 µg/mL (≈ 145 µM).

`NC(=S)N1CCCc2ccccc21`: the kinetic solubility is above 28.8 µg/mL.

Turning to `Nc1ccc(S(=O)(=O)NC2=NCCCCC2)cc1`, the kinetic solubility was above 40.1 µg/mL.

Molecule `Cn1c(=O)c2c(ncn2CC(=O)Nc2cc(S(=O)(=O)N3CCCCC3)ccc2O)n(C)c1=O` gave a solubility (kinetic) above 71.5 µg/mL.

For `Cc1ccc(C)c(N2CCN(c3ncccc3[N+](=O)[O-])CC2)c1`, the kinetic solubility came to 1.1 µg/mL (≈ 3.52 µM).

As for `COc1ccc(S(=O)(=O)NC(C)C(=O)N2CCCCCC2)cc1` (stereo not drawn), the solubility (kinetic) is above 51.1 µg/mL.

In turn, `O=C(Nc1c(-c2ccccc2)nc2ccccn12)c1ccccc1` registered a kinetic solubility of 38.7 µg/mL (≈ 124 µM).

Molecule `CN1C/C(=C/c2ccncc2)C(=O)/C(=C/c2ccncc2)C1` yielded a solubility (kinetic) of 40.9 µg/mL (≈ 140 µM). The solubility kinetic values of the last two molecules are within 1.5-fold of each other.

For `O=C(NCc1ccncc1)c1cc(F)c(F)cc1Cl`, the kinetic solubility was above 42.4 µg/mL.

`O=C(Nc1cccs1)Nc1cccnc1Cl`: the solubility (kinetic) is above 38.1 µg/mL.

As to `O=C(CCC(=O)N1CCCCCC1)NCc1ccc(F)cc1`, the solubility (kinetic) was above 46 µg/mL.

On to `CC(=O)Nc1nc(C)c(-c2nc3ccc([N+](=O)[O-])cc3[nH]2)s1`, for which the solubility (kinetic) came out at 1.2 µg/mL (≈ 3.78 µM).

Molecule `COc1cc(C2SCC(=O)N2Cc2ccccc2)ccc1O` (stereo not drawn) yielded a kinetic solubility above 47.3 µg/mL.

In turn, `CC(=O)Nc1ccccc1-c1nc2cc(C#N)c(C#N)cc2[nH]c1=O` showed a kinetic solubility above 49.4 µg/mL.

As to `Cc1nc2cc(NS(=O)(=O)c3cccc(F)c3)ccc2s1`, the solubility (kinetic) is above 48.4 µg/mL.

Turning to `CCNC(=O)CC1C(=O)N(CC)C(=S)N1NC(=O)c1ccccc1` (stereo not drawn), the solubility (kinetic) is above 52.3 µg/mL.

The molecule `COc1ccc(NC(=O)c2ccc3c(c2)C(=O)N(Cc2ccncc2)C3=O)cc1S(N)(=O)=O` registered a solubility (kinetic) of 3.4 µg/mL (≈ 7.29 µM).

Take `CC1(C(=O)O)CCC(C(N)=O)C1(C)C` (stereo not drawn): the kinetic solubility is above 29.9 µg/mL.

On to `CCN(c1ccccc1)S(=O)(=O)c1ccc(Cl)c(C(=O)O)c1`, for which the solubility (kinetic) is above 51 µg/mL.

With `O=C(Cn1c(=O)oc2ccccc21)Nc1ccc(F)cc1`, the solubility (kinetic) worked out at 21.8 µg/mL (≈ 76.2 µM).

As to `CN(C)CCCNc1oc(/C=C/c2ccccc2)nc1C#N`, the solubility (kinetic) was above 44.5 µg/mL.

In turn, `COc1cc(CNCc2ccccc2)cc(Cl)c1OC.Cl` showed a kinetic solubility of 48.2 µg/mL.

In the case of `COc1ccccc1NC(=O)Cn1nc(C)n2cccc2c1=O`, the solubility (kinetic) was above 46.8 µg/mL.

Molecule `COCCNC(=O)CSc1nccn1Cc1ccc2c(c1)OCO2` came in with a solubility (kinetic) above 52.4 µg/mL.

`COc1cc(C(=O)NC(=S)N(CCC#N)Cc2cccnc2)cc(OC)c1OC` had a kinetic solubility of 59.3 µg/mL (≈ 143 µM).

As for `Cc1[nH]c2ccccc2c1C(=O)CCl`, the kinetic solubility was found to be 12.1 µg/mL (≈ 58.3 µM).

`Cc1ccc(NC(=O)NCCN2CCCCC2)cc1Cl` displayed a solubility (kinetic) above 44.4 µg/mL.

Consider `COc1ccc(CNC(=O)N2CCc3ccccc3C2)cc1Cl`, for which the solubility (kinetic) was determined as 30.4 µg/mL (≈ 91.9 µM).

Turning to `CC1(N(O)C=C2C=CC(=O)C=C2)CCCCC1=O` (stereo not drawn), the kinetic solubility was above 37.1 µg/mL.

Turning to `CN(C(=O)c1cc2ccccc2o1)c1c(N)n(Cc2ccccc2)c(=O)[nH]c1=O`, the kinetic solubility was above 58.6 µg/mL.

The molecule `Cc1noc(C)c1C(=O)N1CCC(CO)(Cc2ccccc2)CC1` returned a solubility (kinetic) of 42 µg/mL (≈ 128 µM).

In turn, `Cc1cc([N+](=O)[O-])nn1CCCC(=O)NC1CCCCC1` returned a kinetic solubility above 44.2 µg/mL.

Take `CC(=O)C1=C(O)C(=O)N(c2ccc(O)cc2)C1c1ccc(F)cc1` (stereo not drawn): the kinetic solubility is above 49.1 µg/mL.

In turn, `Cc1noc(C)c1COC(=O)c1csc2c1CCCC2` showed a kinetic solubility of 8.3 µg/mL (≈ 28.5 µM).

The molecule `C=CCn1c(O)c(C(CC)=Nc2ccc3c(c2)CCC3)c(=O)[nH]c1=O` showed a solubility (kinetic) of 1.4 µg/mL (≈ 4.12 µM). This solubility kinetic is about 5.9-fold lower than that of the molecule before.

Molecule `N#Cc1cccc(NC(=O)CNC(=O)Cc2ccccc2)c1` gave a solubility (kinetic) of 42.1 µg/mL (≈ 144 µM). This solubility kinetic is about 30-fold higher than that of the molecule before.

The molecule `CN(C)C(CNC(=O)c1ccc(C(F)(F)F)cc1)c1ccco1` (stereo not drawn) had a solubility (kinetic) above 48.9 µg/mL.

`CCN1CCN(C(=O)c2[nH]c3ccc(OC)cc3c2C)CC1` displayed a kinetic solubility above 45.2 µg/mL.

`Cc1ccc(C)c(S(=O)(=O)NCCCc2ccccc2)c1` yielded a kinetic solubility of 14.2 µg/mL (≈ 46.8 µM).

Take `CC(=O)c1cccc(OCC(=O)N(C)CC(=O)NCc2ccco2)c1`: the kinetic solubility was above 51.7 µg/mL.

For the molecule `CC(OC(=O)C1CCC1)C(=O)Nc1cc(Cl)cc(Cl)c1` (stereo not drawn), the kinetic solubility turned out to be 2.4 µg/mL (≈ 7.59 µM).

Molecule `CC(C)NC(=O)C(=O)Nc1cc2c3c(c1)C(C)C(=O)N3CCC2` (stereo not drawn) came in with a kinetic solubility of 44.6 µg/mL (≈ 141 µM).

Consider `COc1ccc(/C=C2/SC(=S)NC2=O)cc1OCc1ccccc1`, for which the kinetic solubility was below 0.8 µg/mL.

On to `Cc1cccc(NC(=S)N2CCCCC2c2cccnc2)c1C` (stereo not drawn), for which the solubility (kinetic) is above 48.8 µg/mL.

Regarding `COc1ccccc1NC(=O)Nc1cccnc1`, the kinetic solubility worked out at 34.6 µg/mL (≈ 142 µM).

Turning to `O=C(CNS(=O)(=O)Cc1ccccc1)NCc1ccccc1`, the solubility (kinetic) amounted to 12.9 µg/mL (≈ 40.5 µM).

On to `COc1ccccc1CC(=O)NCCc1c[nH]c2ccccc12`, for which the solubility (kinetic) turned out to be 44.9 µg/mL (≈ 146 µM).

Regarding `COc1ccc(OC)c2c1sc(=NC(=O)C1CCCCC1)n2C`, the kinetic solubility was below 0.4 µg/mL.

`CC(C)COc1ccc(C(=O)N2C(=O)c3ccc(N)cc3C2=O)cc1` came in with a kinetic solubility of 1.8 µg/mL (≈ 5.32 µM).

Take `Cc1ccc([N+](=O)[O-])cc1N(CC(=O)NC1CCCC1)S(C)(=O)=O`: the solubility (kinetic) is above 53.3 µg/mL.

As for `O=C(COc1ccc(Cl)cc1)Nc1ccc2oc(=O)ccc2c1`, the kinetic solubility was below 0.7 µg/mL.

In the case of `CCOc1ccc(S(=O)(=O)N2CCOCC2)cc1[N+](=O)[O-]`, the kinetic solubility was above 47.4 µg/mL.

The molecule `Cc1ccc(C(=O)N2CCN(c3ncccn3)CC2)cc1` yielded a kinetic solubility above 42.4 µg/mL.

Consider `C=CCn1c(SCC(=O)Nc2ccc(C(=O)O)cc2)nc2scc(-c3ccccc3)c2c1=O`, for which the solubility (kinetic) was above 71.6 µg/mL.

Molecule `Cn1cnnc1SCC(=O)NNC(=O)c1ccc([N+](=O)[O-])cc1` displayed a kinetic solubility above 50.4 µg/mL.

As for `OCCNc1nc(N2CCOCC2)nc(N2CCOCC2)n1`, the solubility (kinetic) came out at 44.7 µg/mL (≈ 144 µM).
